Legend:
Format in all cases: cell-based
[1] = test system: Geobacillus stearothermophilus ATCC 7953; experiment: Heat resistance test A, antibacterial activity as index; conditions: 1000 γ solution, pH adjusted to 9, 98° C. for 5 min; FIG. 4-1
Procedure: (§1) Examples of a typical test for measuring the stability of a compound include pH stability test, as well as heat resistance test, and storage test. This information is also regarded as important in evaluating the compound as described above. Using the sample of HK-1 prepared in the above “3. Antibacterial activity test in changing pH”, experiments were carried out to examine whether the compound is stable or not using G. stearothermophilus and B. subtilis guided by the antibacterial activity as the index.
(§2) Three hundred (300) μL of the 1000 γ HK-1 solution (pH 9, and pH not adjusted) prepared in the above “3. Antibacterial activity test in changing pH” was dispensed into a 1 mL microtube. The opening of the tube was closed hermetically with parafilm and heated in the bath at 98° C. for 5 min. An assay was performed using the culture medium for assaying antibacterial activity prepared in “3. Antibacterial activity test in changing pH” above.

[2] = test system: Bacillus subtilis NBRC 3134^T; experiment: as above; conditions: 1000 γ solution, pH adjusted to 9, 98° C. for 5 min; FIG. 4-1
Procedure: as §1, §2

[3] = test system: Geobacillus stearothermophilus ATCC 7953; experiment: Antibacterial spectrum test, paper disk assay; conditions: 50 μL of 1000 γ solution in methanol, LB agar, 60° C., 18 hours
Procedure: The antibacterial activity of HK-1 was assayed using a paper disk against the following bacterial bodies. A piece of ice was taken out of a glycerol stock of G. stearothermophilus stored at -80° C. and […] inoculated on the LB agar culture medium (see Example 1) with a toothpick. This was incubated at 60° C. for 18 hours. After the incubation, 1⁄2 platinum loop of the culture was harvested and suspended in 500 μL of sterile water. The bacterial suspension was diluted 10-fold with sterile water. Onto a LB agar culture medium, 100 μL of the diluted suspension was dropped and spread until it was dried up. A piece of paper disk was placed on a filter paper, onto which 50 μL of a HK-1 solution adjusted to 1000 γ with methanol was dropped and dried. Then the disk was placed on the agar culture medium coated with the bacterial body. After incubation at 60° C. for 18 hours, the diameter of the inhibition ring was measured.

[4] = test system: Streptomyces griseus NBRC 15744^T; experiment: Antibacterial spectrum test, paper disk assay; conditions: 50 μL of 1000 γ solution in methanol, YMPD medium, 28° C., 4 days
Procedure: The antibacterial activity of HK-1 was assayed using a paper disk against the following bacterial bodies.
A piece of ice out of a glycerol stock of S. griseus stored at −80° C. was planarly inoculated on the YMPD agar culture medium with a toothpick. This was incubated at 28° C. for 5 days. After the incubation, a small amount of spore was scraped off with a swab, and planarly inoculated on the YMPD culture medium. A piece of paper disk was placed on a filter paper, onto which 50 μL of a HK-1 solution adjusted to 1000 γ with methanol was dropped and dried. Then the disk was placed on the agar culture medium coated with the bacterial body. After incubation at 28° C. for 4 days, the diameter of the inhibition ring was measured.

COc1cc(OOc2cc(OC)c3c(c2-c2c(O)c(Cl)c(C)c4c2C(O)c2c(Cl)c(O)cc(O)c2C4=O)C(OC2OC(C)C(O)C2O)c2c(Cl)c(OC)c(Cl)c(C)c2C3=O)c(-c2c(O)c(Cl)c(C)c3c2C(O)c2c(Cl)c(O)cc(O)c2C3=O)c2c1C(=O)c1c(C)c(Cl)c(OC)c(Cl)c1C2OC1OC(C)C(O)C1O (stereo not shown) [HK-1]
antibacterial effect after heating at high temperature [1]: the antibacterial effect was not lost | antibacterial effect after heating at high temperature [2]: the antibacterial effect was not lost | inhibition ring diameter [3]: 34.0 mm | inhibition ring diameter [4]: 38.0 mm

Reference: patent US20220127298A1, “THERMOSPOROTHRIX HAZAKENSIS-DERIVED ANTIBACTERIALLY ACTIVE SUBSTANCE” (KENNAN EISEI KOGYO CO., LTD., priority 2019, published 2022)
